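Results reflect a 48-hour exposure of cells in 96-well plates to compound at five concentrations. Abbreviation: GI50, concentration required for 50% inhibition of growth.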 Active and inactive are the calls of the source. Rule as the data show it: active = GI50 up to about 1.1 µM and inactive = higher.
Columns and labels:
Assay in all cases: NCI tumour cell line growth inhibition, 48 h
XF498 = test system: XF498
DMS-114 = test system: DMS-114
LXFL 529 = test system: LXFL 529
DMS-273 = test system: DMS-273
KM-20L2 = test system: KM-20L2
M19-MEL = test system: M19-MEL
RXF 631 = test system: RXF 631
DLD-1 = test system: DLD-1
HOP-18 = test system: HOP-18

Measured: GI50

CC(C)(C)c1ccccc1NS(=O)(=O)c1ccccc1
inactive: XF498 > 100 µM | DMS-114 49.9 µM | LXFL 529 > 100 µM | DMS-273 > 100 µM | KM-20L2 94 µM | M19-MEL > 100 µM | RXF 631 > 100 µM

O=C1c2c(c3c4ccccc4[nH]c3c3[nH]c4ccccc4c23)C(=O)N1Cc1ccccc1
inactive: DLD-1 3.64 µM | XF498 2 µM | DMS-114 2.82 µM | LXFL 529 3.44 µM | DMS-273 2.74 µM | KM-20L2 2.94 µM | M19-MEL 3.64 µM | RXF 631 2.32 µM

NS(=O)(=O)c1ccc(NC(=O)c2cccn3c(=O)c4ccccc4nc23)cc1
inactive: DLD-1 > 100 µM | XF498 > 100 µM | HOP-18 > 100 µM | DMS-114 > 100 µM | LXFL 529 > 100 µM | KM-20L2 > 100 µM | M19-MEL > 100 µM | RXF 631 > 100 µM

N=C(c1ccccc1)N1CCCCC1
inactive: DLD-1 > 100 µM | HOP-18 > 100 µM | DMS-114 > 100 µM | LXFL 529 > 100 µM | DMS-273 > 100 µM | KM-20L2 > 100 µM | M19-MEL > 100 µM

COc1ccc(C2S/C(=C\c3cccc(O)c3)C(=O)N2NC(=O)Cc2ccccc2)cc1 (centres undefined)
inactive: DLD-1 > 100 µM | HOP-18 > 100 µM | DMS-114 > 100 µM | LXFL 529 > 100 µM | DMS-273 > 100 µM | M19-MEL > 100 µM

CCCCCC/C=C1\CCC(CN2CCCC2)C1=O (centres undefined)
inactive: DLD-1 5.21 µM | XF498 17.4 µM | HOP-18 18.7 µM | DMS-114 13.8 µM | LXFL 529 3.85 µM | DMS-273 12.7 µM | KM-20L2 20.5 µM | M19-MEL 11.4 µM | RXF 631 20.1 µM

N/N=C1\c2ccccc2C2/C(=N\N)c3ccccc3C12 (centres undefined)
inactive: DLD-1 > 100 µM | HOP-18 57.4 µM | DMS-114 > 100 µM | LXFL 529 > 100 µM | DMS-273 > 100 µM | KM-20L2 > 100 µM | M19-MEL > 100 µM

N#CCCN(CCC#N)c1ccc(/C=C2\N=C(COc3ccc(Cl)cc3Cl)OC2=O)cc1
inactive: DLD-1 > 100 µM | XF498 > 100 µM | DMS-114 > 100 µM | LXFL 529 > 100 µM | DMS-273 > 100 µM | KM-20L2 > 100 µM | M19-MEL > 100 µM | RXF 631 > 100 µM

C[C@]12CCC(=O)C[C@H]1CCC(O)[C@@H]2Br (some centres undefined)
inactive: DLD-1 > 100 µM | XF498 > 100 µM | HOP-18 > 100 µM | DMS-114 > 100 µM | LXFL 529 > 100 µM | DMS-273 > 100 µM | KM-20L2 > 100 µM | M19-MEL > 100 µM | RXF 631 > 100 µM

CC1(C)C2CCC13C(=O)C1OC3(C2)C2C(=O)N(c3ccccc3)C(=O)C12 (centres undefined)
inactive: HOP-18 > 100 µM | DMS-114 > 100 µM | LXFL 529 > 100 µM | DMS-273 > 100 µM | KM-20L2 > 100 µM | RXF 631 > 100 µM

C[C@@H]1C[C@]2(C[C@@H](C)C3[C@@H](CC4(C)[C@@H]5CCC6C(C)(C)OC(=O)C=C[C@]67C[C@@]5(CC[C@]34C)OO7)O2)OC1=O (some centres undefined)
inactive: DLD-1 52.7 µM | XF498 17.6 µM | HOP-18 > 100 µM | DMS-114 > 100 µM | LXFL 529 31.6 µM | DMS-273 > 100 µM

COc1ccc(O)cc1C=O
inactive: DLD-1 > 100 µM | XF498 99.1 µM | HOP-18 > 100 µM | DMS-114 32.8 µM | LXFL 529 77.1 µM | DMS-273 87.9 µM | KM-20L2 > 100 µM | M19-MEL 77.1 µM | RXF 631 > 100 µM

O=C1[C@H]2ON(c3ccccc3)C(c3ccccc3Cl)[C@H]2C(=O)N1c1ccc(Cc2ccc(N3C(=O)[C@@H]4ON(c5ccccc5)C(c5ccccc5Cl)[C@@H]4C3=O)cc2)cc1 (some centres undefined)
inactive: DLD-1 > 100 µM | HOP-18 > 100 µM | DMS-114 > 100 µM | LXFL 529 > 100 µM | DMS-273 > 100 µM | KM-20L2 > 100 µM | M19-MEL > 100 µM

COC1=C(C)C(=O)c2c(cc3c(c2O)C(C)(CCC=C(C)C)C(C)O3)C1=O (centres undefined)
inactive: DLD-1 > 100 µM | XF498 > 100 µM | HOP-18 > 48.2 µM | DMS-114 > 100 µM | LXFL 529 > 100 µM | DMS-273 > 57.1 µM | KM-20L2 > 100 µM | M19-MEL 10.1 µM

Cn1ncnc1CCc1ccccc1
inactive: HOP-18 > 100 µM | DMS-114 > 100 µM | LXFL 529 > 100 µM | DMS-273 > 100 µM | KM-20L2 > 100 µM | M19-MEL > 100 µM

COC(=O)C(=O)C(C(=O)C=C(C)C)C(=O)C(=O)Nc1ccc(Cl)cc1C (centres undefined)
inactive: DLD-1 > 100 µM | HOP-18 > 100 µM | DMS-114 92 µM | LXFL 529 > 100 µM | DMS-273 35.6 µM | KM-20L2 > 100 µM | M19-MEL > 100 µM | RXF 631 > 100 µM

C/C=C(/CCC1NCCC2c3ccccc3NC12)[Si](C)(C)C (centres undefined)
inactive: DLD-1 5.16 µM | XF498 3.15 µM | HOP-18 13.7 µM | DMS-114 4.53 µM | LXFL 529 3.65 µM | DMS-273 8.55 µM | KM-20L2 4.62 µM | M19-MEL 12 µM | RXF 631 10.4 µM

COC(=O)CC[C@]12C[C@]13CC[C@]1(C)C4C(C)C[C@]5(CC(C)C(=O)O5)OC4CC1(C)C3CCC2C(C)(C)O (some centres undefined)
inactive: DLD-1 51.8 µM | XF498 58.6 µM | HOP-18 > 100 µM | DMS-114 59.7 µM | LXFL 529 55.2 µM | DMS-273 32.7 µM | KM-20L2 > 100 µM | M19-MEL 48 µM

O=C(CCN1CCCCC1CCO)Nc1ccc2c(c1)C(=O)c1ccc(NC(=O)CCN3CCCCC3CCO)cc1C2=O (centres undefined)
inactive: DLD-1 2.19 µM | HOP-18 2.25 µM | DMS-114 4.08 µM | LXFL 529 2.32 µM | DMS-273 2.83 µM | KM-20L2 20.1 µM | M19-MEL 26.4 µM

Nc1nc(-c2ccco2)cc(-c2ccco2)n1
inactive: XF498 > 100 µM | DMS-114 > 100 µM | LXFL 529 > 100 µM | DMS-273 5.14 µM | KM-20L2 > 100 µM | M19-MEL > 100 µM
